How the values were obtained:
[1] = test system: retinal ganglion cell axons; test: Protection of retinal ganglion cell axons from degeneration following optic nerve transection (Table E); assay type: in vivo, rat; settings: 14 days after optic nerve transection; ± SEM
Source text: Efficacy of representative compounds from different immunophilin ligand series in protecting retinal ganglion cell axons from degeneration following optic nerve transection is set forth in Table E.

[2] = Clearance (Table E comments); assay type: in vitro ADME
FKBP12 = FKBP12 (Homo sapiens, UniProt P62942); test: Ki Test Procedure: inhibition of peptidyl-prolyl isomerase (rotamase) activity, chymotrypsin-coupled assay; assay type: biochemical; settings: Table E comments
Protocol: The inhibition of the prolyl peptidyl cis-trans isomerase activity of FKBP may be measured as an indicator of this affinity.
The cis-trans isomerization of an alanine-proline bond in a model substrate, N-succinyl-Ala-Ala-Pro-Phe-p-nitroanilide, is monitored spectrophotometrically in a chymotrypsin-coupled assay, which releases para-nitroanilide from the trans form of the substrate. The inhibition of this reaction caused by the addition of different concentrations of inhibitor is determined, and the data is analyzed as a change in first-order rate constant as a function of inhibitor concentration to yield the apparent Ki values.
In a plastic cuvette are added 950 mL of ice cold assay buffer (25 mM HEPES, pH 7.8, 100 mM NaCl), 10 mL of FKBP (2.5 mM in 10 mM Tris-Cl pH 7.5, 100 mM NaCl, 1 mM dithiothreitol), 25 mL of chymotrypsin (50 mg/ml in 1 mM HCl) and 10 mL of test compound at various concentrations in dimethyl sulfoxide. The reaction is initiated by the addition of 5 mL of substrate (succinyl-Ala-Phe-Pro-Phe-para-nitroanilide, 5 mg/mL in 2.35 mM LiCl in trifluoroethanol).
The absorbance at 390 nm versus time is monitored for 90 seconds using a spectrophotometer and the rate constants are determined from the absorbance versus time data files.

[3] = test system: retinal ganglion cells and optic nerve axons; test: Optic nerve transection vision loss model, 14 or 28 day treatment, sacrifice at 90 days (Example 2, Table A); assay type: in vivo, Sprague Dawley rats; settings: for Proximal optic nerve myclin basic protein Density, % recovery: ± SEM, % areal coverage of optic nerve cross section
Source text: All eyes and optic nerves stumps were removed.

[4] = Morris watermaze spatial learning and memory in aged rodents (Example 15); assay type: in vivo, C57BL/6N-Nia mice; settings: aged impaired mice, 10 mg/kg daily, retention testing after 3 weeks of dosing
Source text: The Morris watermaze is widely used for assessing spatial memory formation and retention in experimental animals. The test depends on the animal's ability to utilize spatial visual information in order to locate a submerged escape platform in a water tank. It is important that the tank itself be as devoid of specific visual features as possible—thus, it is always circular in shape, the sides are kept smooth and in uniform dull colors, and the water is rendered opaque with nontoxic watercolor pigment or powdered milk. This is to ensure that the animal navigates only by the use of more distant visual cues, or by the use of intra-maze cues specifically provided by the experimenter. The animals' path, speed, and swim time are tracked with a ceiling camera for later computerized analysis. Over the course of several successive trials, spatial learning can therefore be defined as a drop of distance swum, or time elapsed, from placement in the tank until escape onto the invisible platform. The procedure involved using three-month old (young) and 18-19 month old male C57BL/6N-Nia (aged) mice which habituated to the well known and conventional Morris watermaze during a 4 trials/day, 3-4 day visible platform training phase. […] Swim Distances (cm) were analyzed in a 7×5 ANOVA including Groups and Blocks (1-5) as factors in the analysis, treating Blocks as a repeated measure.

retinal ganglion cells = test: Optic nerve transection, 28 days treatment, sacrifice at 90 days (Example 13); assay type: in vivo, Sprague Dawley rats; settings: 10 mg/kg/day s.c. for 28 days, 90 days after transection
Source text: Transection of the mammalian optic nerve results in a brief period of abortive regeneration, but the majority of axotomized neurons die and the axons from many persisting ganglion cells die back beyond the optic nerve head.

[5] = test system: retinal ganglion cells, optic nerve axons and myelin; test: Retinal ischemia (intraocular pressure above arterial blood pressure), examined 28 days later; assay type: in vivo, adult rats
Source text: Retinal ganglion cells were retrogradely labeled in adult rats by bilateral injection of fluorogold in their lateral geniculate nuclei. Labeled ganglion cells in the normal rat retina appear as white profiles against the dark background (FIG. 1A). Complete retinal ischemia was produced by infusing normal saline solution into the retinal vitreous cavity of each eye until the intraocular pressure exceeded arterial blood pressure. 28 days after the ischemic episode extensive degeneration of retinal ganglion cell was evidenced by massive reduction in the density of fluorogold labeled cells (FIG. 1B).

Chain of FKBP12 (P62942 whole entry, species assumed): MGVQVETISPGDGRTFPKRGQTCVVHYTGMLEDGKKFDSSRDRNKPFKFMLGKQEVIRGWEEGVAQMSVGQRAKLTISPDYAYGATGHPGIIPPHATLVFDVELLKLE

With CCC(C)(C)C(=O)C(=O)N1CCC[C@H]1C(=O)SCCC(c1ccccc1)c1ccccc1 [M] the “RT97 + RGC axon density 14 days after On transection (% ON axons rescued)” value [1] was −6.3% ± 3.9% SEM.
In the case of C=C(C(=O)N1CCCC[C@H]1C(N)=O)C(C)(C)CC [H], the “RT97 + RGC axon density 14 days after On transection (% ON axons rescued)” value [1] is reported as 30.3% ± 8.0% SEM.
In the case of CCC(C)(C)C(=O)C(=O)N1CCCCC1C(=O)OC(CCc1ccccc1)CCc1ccccc1 (centres unmarked) [E], the Clearance [2] is reported as 41.8 µL/min.
In the case of C=C(C(=O)N1CCCC[C@H]1C(=O)O)C(C)(C)CC [G], the Ki (FKBP12) is reported as over 10 µM and the “RT97 + RGC axon density 14 days after On transection (% ON axons rescued)” value [1] is reported as 34.0% ± 4.8% SEM.
With O=C(SCCCc1ccccc1)[C@@H]1CCCN1C(=O)NC12CC3CC(CC(C3)C1)C2 [B] the “RT97 + RGC axon density 14 days after On transection (% ON axons rescued)” value [1] was 100.0% ± 5.2% SEM.
In the case of CCC(C)(C)C(=O)C(=O)N1CCC[C@H]1C(=O)OCCCc1cccnc1 [GPI 1046], the “RGC Counts” value ([3]; 14 days treatment, 10 mg/kg/day sc, 90 days after transection, mean density ± SEM of Fluoro-gold labeled RGC in 400 μm × 400 μm gridfields) is reported as 49 ± 5.3, the “Distal optic nerve shrinkage” value ([3]; 14 days treatment, cross sectional area compared to sham control) is reported as 33% shrinkage and the “Distal optic nerve myclin basic protein Density, loss” value ([3]; 14 days treatment, cross sectional area multiplied by myelin density) is reported as 47% loss. The “Proximal optic nerve myclin basic protein Density, % recovery” value ([3]; 14 days treatment) was 1.6 ± 3.0 SEM % recovery, the “density of large, medium and small caliber optic nerve axons” value ([3]; 28 day treatment) was “significant increase” and the “ON Axon density” value ([3]; 28 days treatment, 90 days after transection, RT97 labeled axons in 200 μm × 200 μm region, mean ± SEM) was 1526 ± 120. For the same compound, the “Distal optic nerve, less shrinkage” value ([3]; 28 days treatment, cross sectional area compared to sham control) was 56% less shrinkage*, the “Proximal optic nerve myclin basic protein Density, % recovery” value ([3]; 28 days treatment) was 70 ± 6.3 SEM % recovery and the “spatial memory performance (Morris watermaze retention, swim distance)” value [4] was “significantly enhanced spatial memory performance”. For the same compound, the “ganglion cell population spared” value (retinal ganglion cells) was 25%, the “preservation of axons in the proximal stump of the transected nerve” value (retinal ganglion cells; RT97 neurofilament) was “preserved the axons of virtually all protected neurons” and the “protection of retinal ganglion cells (fluorogold labeled) after retinal ischemia” value ([5]; 10 mg/kg s.c. 1 hour prior to ischemia and 10 mg/kg/day for the next four days, 28 days after ischemia) was “noticeable protection of a large proportion of the vulnerable ganglion cell population”. The “density of degenerating myelin figures after retinal ischemia” value ([5]; 28 days after 1 hour retinal ischemic episode) was “dramatically decreased the density of degenerating myelin figures” and the “protection of optic nerve axons after retinal ischemia” value ([5]; 28 days after 1 hour retinal ischemic episode, toluidine blue staining) was “protected the majority of optic nerve axons from degeneration”.
For C=C(C(=O)N1CCC[C@H]1C(=O)O)C(C)(C)CC [L], the Ki (FKBP12) was over 7.74 µM, the Clearance [2] was 5.2 µL/min and the “RT97 + RGC axon density 14 days after On transection (% ON axons rescued)” value [1] was 7.8% ± 3.0% SEM.

Source: patent publication US6376517B1, “Pipecolic acid derivatives for vision and memory disorders” (GPI NIL Holdings, Inc., priority 1998, dated 2002)
